# According to US20020039780A1, “Salicyclic acid inducible genes and promoters” (priority 1998, published 2002):
# Legend:
# Type in all cases: cell-based
# [1] = test system: G3-2; assay: Northern analysis of mRNA accumulation in cultured tobacco cells
# Protocol: (§1) FIG. 1. Four classes of SA-induced early genes. Northern analysis of genes identified by differential display. Gel-purified DNA fragments produced by ddPCR were either used directly for random-primed labeling and probing of Northern filters (e.g. C7-1, C6-1, and G9-2) or first subcloned and released by restriction digest. Each lane contains 1 μg of poly(A) mRNA from cultured tobacco cells treated with (1) H2O, 4 hr; (2) 200 μM SA, 4 hr; (3) 71 μM CHX, 5 hr; (4) 71 μM CHX, 5 hr plus 200 μM SA after 1 hr (4 hr total); (5) 20 μM SA, 2 hr; (7) 200 μM SA, 8 hr. One blot was sequentially hybridized with the G1-1 fragment and the β-ATPase gene as a loading control probe. response classes (I-IV) are indicated on the left of the autoradiograms.
# FIG. 2. Time course of SA-induced gene expression. Northern analysis of representative differential display genes following treatment of cultured tobacco cells with SA for the indicated time (in hours, except lanes 2-4, which refer to 10, 20, and 30 min.). Twenty micrograms of total RNA was loaded per lane. Blots were hybridized with ddPCR fragments indicated at right or with the β-ATPase gene as a loading control probe. Autoradiogram exposure times were optimized for each gene. The signal for C18-1 was enhanced by using the full length cDNA as probe. Labels on left indicate response class.
# FIG. 4. Specificity of induction among SA analogs and other signalling compounds. Northern analysis of representative differential display genes following treatment of tobacco cells with 100 μM or 1 mM (left and right side of triangles, respectively) of the following chemicals for 2-2.5 hr: salicylic acid (SA, lanes 4 and 5), acetylSA (ASA, lanes 6 and 7), benzoic acid (BA, lanes 8 and 9), 4-hydroxybenzoic (4HBA, lanes 10 and 11), thiamine (thia, lanes 12 and 13), methyljasmonate (MJ, lanes 14 and 15), abscisic acid (ABA, lanes 16 and 17), or 2,4-dichlorophenoxyacetic acid (2,4-D, lanes 18 and 19). Control treatments are H2O (H, lane 1), 1% ethanol (E, solvent concentration in MJ treatments, lane 2), or 1% DMSO (D, solvent concentration in 2,4D treatments, lane 3). Blots were hybridized with ddPCR fragments indicated at right or with the β-ATPase geneas a loading control probe. Autoradiogram exposure times were optimized for each gene. The signal for C18-1 was enhanced by using the full length cDNA as probe. Labels on left indicate response class.
# (§2) Differential display technology (Liang, P. and Pardee, A. B., Science 257: 967-971, 1992) was used to identify genes activated in the presence of SA, CHX and both. Therefore the absence or presence of SA, induction at 3 timepoints of SA-treatment, 2 different concentrations of SA and the effect of addition of CHX were measured. Seven treatments in total were performed. Treatment of tobacco BY-2 suspension cells and leaves and differential display PCR reactions were performed as described (Horvath and Chua (1996), Plant Mol. Biol. 31, 1061-1072).
# The specificity for induction by SA was tested by treating tobacco cells with a range of SA analogs and plant signalling compounds at 0.1 and 1 mM for approximately 2.5 h. […] Among the SA-analogs, acetyl-SA (ASA, aspirin), benzoic acid (BA) and 4-hydroxybenzoic acid (4HBA), responses generally reflected the ability of the analog to substitute for SA in other cellular responses (Yalpani, N. et al., Plant Cell 3: 809-818, 1991, Yang, Y. and Klessig, D. F., Proc. Natl. Acad. Sci. 93, 14972-14977, 1996). […] Several genes, including those for proteinase inhibitors and lipoxygenase (Hildmann, T. et al., Plant Cell 4: 1157-1170, 1992; Melan, M. A. et al., Plant Physiol. 101: 441-450, 1993; Xu, D. et al., Plant Mol. Biol. 22: 573-588, 1993) are known to be under dual regulation by MJ and ABA. A similar mode of regulation may be in effect with C14-1b. the auxin 2,4-D induced several genes including C18-1/EREBP1 and C6-2.
# [2] = test system: Class I genes; assay: Northern analysis of poly(A) mRNA from treated tobacco cells; settings: SA at 2, 4 or 8 h; 71 μM CHX 5 hrs; CHX + 200 μM SA
# Protocol: as §1, §2
# (§3) Fiftytwo were recovered for testing on poly(A)+Northern blots loaded with mRNA derived from cells from each of the treatments.
# [3] = test system: class II genes; assay: as above; settings: SA at 2, 4, 8 h; 71 μM CHX 5 hrs; CHX + 200 μM SA
# Protocol: as §1, §2, §3
# [4] = test system: class IV genes (G3-2 and C14-1b); assay: as above; settings: SA at 2, 4, 8 h; 71 μM CHX 5 hrs
# Protocol: as §1, §2, §3
smiles,measurement,setting,value
"O=C(O)c1ccccc1O [SA, salicylic acid]",G3-2 mRNA levels at 20 μM SA,[1]; 20 μM SA,comparable to those at 200 μM
same,G3-2 induction at 0.1 mM versus 1 mM,"[1]; 0.1 and 1 mM, approximately 2.5 h",equal or greater induction at 0.1 mM versus 1 mM
same,G3-2 mRNA levels between 2 and 12 h,[1]; SA time course,increased steadily
same,time before which G3-2 is not detectably activated,[1]; SA time course,≥ 2 h
same,sensitivity of G3-2 to SA,[1]; data not shown,similarly sensitive as G8-1
same,mRNA induction of Class I genes,[2],little if any detectable mRNA accumulation
same,mRNA induction of class II genes,[3],rapid and transient
same,mRNA induction of class IV genes,[4],rapid and sustained induction
